In patent US20020090380A1, “Novel formulation comprising thymol useful in the treatment of drug resistant bacterial infections” (priority 2000, published 2002):
Where two headings read alike, the source gives them in different places.

Key:
Assay type in all cases: cell-based
[1] = tested on: multidrug resistant bacteria
[2] = tested on: lomefloxacin resistant mutants of Escherichia coli; test: microbe, parasite or virus in culture
[3] = tested on: nalidixic acid resistant mutants of Escherichia coli; test: microbe, parasite or virus in culture; conditions: for inhibition zones / zone of inhibition at 50 µg/disc: 50 μg/disc; for zone of inhibition at 100 µg/disc / zone of inhibition at 250 µg/disc / zone of inhibition at 50 µg/disc: Escherichia coli; for zone of inhibition at 100 µg/disc: 100 μg/disc; for zone of inhibition at 250 µg/disc: 250 μg/disc
[4] = tested on: Escherchia coli strain CA8000; test: organism not typed; conditions: for zone of inhibition at 50 µg/disc: 50 μg/disc; for zone of inhibition at 100 µg/disc: 100 μg/disc
Description: Activity of the Compound of the Present Invention Thymol at Different pH in Escherchia coli Strain CA8000
The above table clearly indicate that the activity of the present compound is maximum at neutral pH (7.00).

[5] = tested on: E. coli strain ET8000 (gyr mutation); test: microbe, parasite or virus in culture; conditions: Escherichia coli
[6] = tested on: Mycobacterium smegmatis wild type strain MC^2; test: microbe, parasite or virus in culture; conditions: Mycolicibacterium smegmatis
[7] = tested on: E. coli strain CA8000 (wild type); test: microbe, parasite or virus in culture; conditions: Escherichia coli
E. coli cells [8] = test: microbe, parasite or virus in culture; conditions: Escherichia coli
[9] = tested on: E. coli strain DH5α (gyr mutation); test: microbe, parasite or virus in culture; conditions: Escherichia coli
E. coli cells [10] = test: Disk diffusion assay, synergistic effect of thymol with Mentha hybrid oil; conditions: Escherichia coli; thymol 50 μg/disc
E. coli CAO3 = test: microbe, parasite or virus in culture; conditions: Escherichia coli, CAO3, read-out: inhibition zones
[11] = tested on: Ethidium bromide resistant strain of Mycobacterium smegmetis; test: microbe, parasite or virus in culture; conditions: read-out: Activity of thymol (zone)
E. coli CAO3 (revert) = test: microbe, parasite or virus in culture; conditions: Escherichia coli, read-out: inhibition zones
[12] = tested on: lomefloxacin resistant mutants of Mycobacterium smegmatis; test: microbe, parasite or virus in culture; conditions: Mycolicibacterium smegmatis; for zone of inhibition at 100 µg/disc: 100 μg/disc
[13] = read-out: inhibition zones, CAN 102
[14] = read-out: inhibition zones, CAN 104
[15] = read-out: inhibition zones, CAN 105
[16] = read-out: inhibition zones, CAN 106
[17] = read-out: inhibition zones, CAN 107
[18] = read-out: inhibition zones, CAN 108
[19] = read-out: inhibition zones, CAN 109
[20] = read-out: inhibition zones, CAN 110
[21] = read-out: inhibition zones, CAN 111
[22] = read-out: inhibition zones, CAN 112
[23] = read-out: inhibition zones, CAN 113
[24] = read-out: inhibition zones, CAN 114
[25] = read-out: inhibition zones, CAN 115
[26] = read-out: inhibition zones, CAN 116
[27] = read-out: inhibition zones, CAN 117
[28] = read-out: inhibition zones, CAN 118
[29] = read-out: inhibition zones, CAN 119
[30] = read-out: inhibition zones, CAN 120
[31] = read-out: inhibition zones, CAN 121
[32] = read-out: inhibition zones, CAN 122
[33] = read-out: inhibition zones, CAN 123
[34] = read-out: inhibition zones, CAN 124
[35] = read-out: inhibition zones, CAN 125
[36] = read-out: inhibition zones, CAN 126

Cc1ccc(C(C)C)c(O)c1 [Thymol]
45%: increase of the antibacterial activity of thymol [1]
5 mm: zone of inhibition at 100 µg/disc ([2]; read-out: inhibition zones, CAL 102, 100 μg/disc) | zone of inhibition at 100 µg/disc ([2]; read-out: inhibition zones, CAL 108, 100 μg/disc) | zone of inhibition at 250 µg/disc [3, 15] | zone of inhibition at 250 µg/disc [3, 17] | zone of inhibition at 250 µg/disc [3, 18] | zone of inhibition at 250 µg/disc [3, 21] | zone of inhibition at 250 µg/disc [3, 22] | zone of inhibition at 250 µg/disc [3, 23] | zone of inhibition at 250 µg/disc [3, 25] | zone of inhibition at 250 µg/disc [3, 26] | zone of inhibition at 250 µg/disc [3, 27] | zone of inhibition at 250 µg/disc [3, 28] | zone of inhibition at 250 µg/disc [3, 31] | zone of inhibition at 250 µg/disc [3, 32] | zone of inhibition at 250 µg/disc [3, 33] | zone of inhibition at 250 µg/disc [3, 34] | zone of inhibition at 250 µg/disc [3, 35] | zone of inhibition at 250 µg/disc [3, 36] | zone of inhibition at 50000 µg/mL [7] | zone of inhibition at 75 µg/disc (E. coli cells [8]; thymol 75.0 μg/disc)
1.5 mm: zone of inhibition at 100 µg/disc ([2]; read-out: inhibition zones, CAL 104, 100 μg/disc) | zone of inhibition at 100 µg/disc ([3]; read-out: inhibition zones, CAN 101)
7 mm: zone of inhibition at 250 µg/disc [3, 13]
3 mm: zone of inhibition at 100 µg/disc ([2]; read-out: inhibition zones, CAL 103, 100 μg/disc) | zone of inhibition at 100 µg/disc [3, 17] | zone of inhibition at 100 µg/disc [3, 19] | zone of inhibition at 100 µg/disc [3, 20] | zone of inhibition at 100 µg/disc [3, 21] | zone of inhibition at 100 µg/disc [3, 22] | zone of inhibition at 100 µg/disc [3, 24] | zone of inhibition at 100 µg/disc [3, 25] | zone of inhibition at 100 µg/disc [3, 26] | zone of inhibition at 100 µg/disc [3, 27] | zone of inhibition at 100 µg/disc [3, 28] | zone of inhibition at 100 µg/disc [3, 29] | zone of inhibition at 100 µg/disc [3, 30] | zone of inhibition at 100 µg/disc [3, 31] | zone of inhibition at 100 µg/disc [3, 33] | zone of inhibition at 100 µg/disc [3, 34] | zone of inhibition at 100 µg/disc [3, 35] | zone of inhibition at 100 µg/disc ([4]; pH 9.00) | zone of inhibition at 20000 µg/mL [5] | zone of inhibition at 150000 µg/mL ([6]; read-out: inhibition zones) | zone of inhibition at 50 µg/disc (E. coli cells [8]; thymol 50.0 μg/disc) | zone of inhibition at 50 µg/disc (E. coli cells [10])
trace: inhibition zone ([4]; 25 μg/disc, pH 4.00)
5.5 mm: zone of inhibition at 50000 µg/mL [9]
2.5 mm: zone of inhibition at 150000 µg/mL ([12]; read-out: inhibition zones, MSL 109, 150 mg/ml)
8 mm: zone of inhibition at 100 µg/disc ([6]; read-out: Activity of thymol (zone)) | zone of inhibition at 100 µg/disc (E. coli CAO3 (revert))
11 mm: zone of inhibition at 100 µg/disc [11]
< 0.5 mm: zone of inhibition at 12.5 µg/disc (E. coli cells [8]; thymol 12.5 μg/disc) | zone of inhibition at 100 µg/disc ([12]; read-out: inhibition zones, MSL 106)
1 mm: zone of inhibition at 50 µg/disc ([2]; read-out: inhibition zones, CAL 104, 50 μg/disc) | zone of inhibition at 50 µg/disc [3, 16] | zone of inhibition at 50 µg/disc [3, 17] | zone of inhibition at 50 µg/disc [3, 19] | zone of inhibition at 50 µg/disc [3, 20] | zone of inhibition at 50 µg/disc [3, 21] | zone of inhibition at 50 µg/disc [3, 22] | zone of inhibition at 50 µg/disc [3, 24] | zone of inhibition at 50 µg/disc [3, 25] | zone of inhibition at 50 µg/disc [3, 26] | zone of inhibition at 50 µg/disc [3, 27] | zone of inhibition at 50 µg/disc [3, 28] | zone of inhibition at 50 µg/disc [3, 29] | zone of inhibition at 50 µg/disc [3, 30] | zone of inhibition at 50 µg/disc [3, 31] | zone of inhibition at 50 µg/disc [3, 33] | zone of inhibition at 50 µg/disc [3, 34] | zone of inhibition at 50 µg/disc [3, 35] | zone of inhibition at 50 µg/disc [3, 36] | zone of inhibition at 25 µg/disc ([4]; 25 μg/disc, pH 7.00) | zone of inhibition at 50 µg/disc ([4]; 1M NaOH) | zone of inhibition at 50 µg/disc ([4]; pH 9.00) | zone of inhibition at 50 µg/disc ([6]; read-out: inhibition zones) | zone of inhibition at 10000 µg/mL [7] | zone of inhibition at 100 µg/disc ([12]; read-out: inhibition zones, MSL 101) | zone of inhibition at 100 µg/disc ([12]; read-out: inhibition zones, MSL 102) | zone of inhibition at 100 µg/disc ([12]; read-out: inhibition zones, MSL 103) | zone of inhibition at 100 µg/disc ([12]; read-out: inhibition zones, MSL 104) | zone of inhibition at 100 µg/disc ([12]; read-out: inhibition zones, MSL 105) | zone of inhibition at 100 µg/disc ([12]; read-out: inhibition zones, MSL 107) | zone of inhibition at 100 µg/disc ([12]; read-out: inhibition zones, MSL 108) | zone of inhibition at 100 µg/disc ([12]; read-out: inhibition zones, MSL 109) | zone of inhibition at 100 µg/disc ([12]; read-out: inhibition zones, MSL 110) | zone of inhibition at 100 µg/disc ([12]; read-out: inhibition zones, MSL 111) | zone of inhibition at 100 µg/disc ([12]; read-out: inhibition zones, MSL 112)
6 mm: zone of inhibition at 250 µg/disc [3, 14] | zone of inhibition at 250 µg/disc [3, 19] | zone of inhibition at 250 µg/disc [3, 20] | zone of inhibition at 250 µg/disc [3, 24] | zone of inhibition at 250 µg/disc [3, 29] | zone of inhibition at 250 µg/disc [3, 30] | zone of inhibition at 100 µg/disc ([4]; pH 7.00) | zone of inhibition at 50000 µg/mL [5] | zone of inhibition at 100 µg/disc (E. coli cells [8]; thymol 100.0 μg/disc)
Tr.: inhibition zones ([3]; CAN 101) | inhibition zones ([3]; CAN 102) | inhibition zones ([3]; CAN 103) | inhibition zones ([3]; CAN 104) | inhibition zones ([3]; CAN 105) | inhibition zones ([3]; CAN 108) | inhibition zones ([3]; CAN 113) | inhibition zones ([3]; CAN 122)
2 mm: zone of inhibition at 50 µg/disc ([2]; read-out: inhibition zones, CAL 101, 50 μg/disc) | zone of inhibition at 50 µg/disc ([2]; read-out: inhibition zones, CAL 103, 50 μg/disc) | zone of inhibition at 50 µg/disc ([2]; read-out: inhibition zones, CAL 105, 50 μg/disc) | zone of inhibition at 50 µg/disc ([2]; read-out: inhibition zones, CAL 106, 50 μg/disc) | zone of inhibition at 50 µg/disc ([2]; read-out: inhibition zones, CAL 107, 50 μg/disc) | zone of inhibition at 100 µg/disc [3, 13] | zone of inhibition at 100 µg/disc ([3]; read-out: inhibition zones, CAN 103) | zone of inhibition at 100 µg/disc [3, 14] | zone of inhibition at 100 µg/disc [3, 15] | zone of inhibition at 100 µg/disc [3, 16] | zone of inhibition at 100 µg/disc [3, 18] | zone of inhibition at 100 µg/disc [3, 23] | zone of inhibition at 100 µg/disc [3, 32] | zone of inhibition at 100 µg/disc [3, 36] | zone of inhibition at 50 µg/disc ([4]; pH 4.00) | zone of inhibition at 50 µg/disc ([4]; pH 7.00) | zone of inhibition at 100 µg/disc ([4]; 1M NaOH) | zone of inhibition at 100 µg/disc ([6]; read-out: inhibition zones) | zone of inhibition at 20000 µg/mL [7] | zone of inhibition at 25 µg/disc (E. coli cells [8]; thymol 25.0 μg/disc) | zone of inhibition at 100 µg/disc (E. coli CAO3)
4 mm: zone of inhibition at 100 µg/disc ([2]; read-out: inhibition zones, CAL 101, 100 μg/disc) | zone of inhibition at 100 µg/disc ([2]; read-out: inhibition zones, CAL 105, 100 μg/disc) | zone of inhibition at 100 µg/disc ([2]; read-out: inhibition zones, CAL 106, 100 μg/disc) | zone of inhibition at 100 µg/disc ([2]; read-out: inhibition zones, CAL 107, 100 μg/disc) | zone of inhibition at 100 µg/disc ([4]; pH 4.00) | zone of inhibition at 250 µg/disc ([6]; read-out: inhibition zones) | zone of inhibition at 250 µg/disc ([7]; read-out: inhibition zones)
